Measured values: patent US20150087587A1, “Process for the Synchronization of Ovulation for Timed Breeding Without Heat Detection” (priority 2003, published 2015)

Key:
Type in all cases: in vivo, swine
postpartum sows [1] = experiment: Timed injection 96 hours post-weaning and single timed insemination without estrus detection; pregnancy, embryos and CL (Example 3); details: 50 mcg deslorelin in SAIB at 96 hours post-weaning
Procedure: Approximately 170 postpartum sows were randomly divided into two equal groups comprised of controls and treated. Following weaning, the controls were detected for estrus and bred following the normal standard operating procedures for the farms on which they resided. The treated sows received a 50 mcg dose of deslorelin in SAIB at 96 hours post-weaning and were bred with a single insemination 28+/−2 hours later with no regard to estrus detection. The sows were examined for pregnancy by ultrasound at 21 days and slaughtered around 28 days post breeding, The entire reproductive tract was removed and corpora lutea and embryos were counted.

postpartum sows [2] = experiment: Litter size and pregnancy rate after treatment in postpartum sows at three farm sites (Example 4); details: regardless of estrus detection
From the text: Postpartum sows were randomly distributed into three different groups comprised of Controls, Treatment 1, and Treatment 2, with the exception of Site 3, which was divided into two groups, Control and Treatment 2. Control sows were detected for estrus following weaning, and bred following the normal standard operating procedures for the farms on which they resided. Treatment 1 sows were detected for estrus following weaning, and received a 50 mcg dose of deslorelin in the morning when standing and were bred by AI 4 hours later and again at 24+/−2 hours later. Treatment 2 sows received a 50 mcg dose of deslorelin in SAIB at 96 or 120 hours post-weaning and were bred with a single insemination 28+/−2 hours later with no regard to estrus detection. […]

mature postpartum sows = experiment: Intravulvar injection at estrus detection with AI in mature postpartum sows (Example 2); details: 50 mcg deslorelin in SAIB intravulvar at estrus detection
Procedure: Sows were assigned randomly in blocks of two to either control or to be injected intravulvar with 50 mcg of deslorelin in SAIB at the time of estrus detection for sows first detected in estrus in the a.m. and 12 hours later for those first detected in estrus in the p.m. Treated animals were bred AI upon detected estrus and again 24 hours later if still in estrus. Controls received a saline injection on first detected estrus behavior estrus detection and were bred according to the farm's normal procedures.

CCNC(=O)[C@@H]1CCCN1C(=O)[C@H](CCCN=C(N)N)NC(=O)[C@H](CC(C)C)NC(=O)[C@@H](Cc1c[nH]c2ccccc12)NC(=O)[C@H](Cc1ccc(O)cc1)NC(=O)[C@H](CO)NC(=O)[C@H](Cc1c[nH]c2ccccc12)NC(=O)[C@H](Cc1cnc[nH]1)NC(=O)[C@@H]1CCC(=O)N1 [Deslorelin, deslorelin]
Embryo Survival (postpartum sows [1]; single insemination): 64% | Pregnancy Rate (postpartum sows [1]; single insemination 28+/-2 hours later, no estrus detection): 71% | Sows Pregnant (postpartum sows [1]; single insemination 28+/-2 hours later, 84 in group): 60 | Litter sizes (in words) (postpartum sows [2]): normal litter sizes | Pregnancy rates, Control versus Treated (in words) (mature postpartum sows): no significant difference
